# Source: US20090317497A1, “Compositions and methods for promoting brain and cardiovascular health, preventing and treating brain and cardiovascular disorders” (priority 2007, published 2009)
# What was measured:
# [1] = system: Wistar rats with stroke induced middle cerebral artery occlusion (MCAO); assay: Chronic MCAO stroke study, Wistar (Example 7); type: in vivo; conditions: Braintone 500 mg/kg, Ginkgo 20, Aspirin 10, Losartan 1 mg/kg/day, means +/- SD, scale 0 to 5
# Method: (§1) 96 Wistar rats and 96 SHR, weighing 250-300 g, were randomly divided into eight treatment groups respectively (see Table 14), Remembrance (Formulation A) and other comparative drugs were dissolved in distilled water and administrated orally once daily for two months (Table 14: dosage of administration).
# Oral administration of Remembrance/other treatments (2 months)→MACO→Continue the corresponding treatment after MACO (1 month)→Measurements
# The differentiation of […] capillaries and evaluation of morphological changes after cerebral ischemia were performed using Hematoxylin and Eosin Staining. Random slides of the rat brains were used for the staining.
# [2] = system: spontaneous hypertension rats (SHR) with stroke induced middle cerebral artery occlusion (MCAO); assay: Chronic MCAO stroke study, SHR (Example 7); type: in vivo; conditions: Braintone (500), Ginkgo 20, Aspirin 10, Losartan 1 mg/kg/day, means +/- SD, scale 0 to 5
# [3] = system: apoptosis-induced nuclear DNA fragmentation in cerebral cortex; assay: Apoptosis assay, TUNEL staining, Wistar (Example 7); type: in vivo, Wistar rats; conditions: after 1 month of MCAO, doses of Table 14
# From the text: TUNEL staining was used for detection of apoptosis-induced nuclear DNA fragmentation via fluorescence microscopy.
# Apoptotic cells were identified by using TUNEL staining.
# [4] = system: apoptosis-induced nuclear DNA fragmentation in cerebral cortex; assay: Apoptosis assay, TUNEL staining, SHR (Example 7); type: in vivo; conditions: doses of Table 14
# From the text: TUNEL staining was used for detection of apoptosis-induced nuclear DNA fragmentation via fluorescence microscopy. Apoptotic cells were identified by using TUNEL staining.
# [5] = system: oxidized DNA base products; assay: DNA damage, oxidized DNA base products by GC/MS, Wistar (Example 7); type: in vivo, Wistar rats; conditions: stroke-induced, Aspirin 10, Losartan 1 mg/kg/day
# [6] = system: Spontaneous Hypertensive Rats (SHR) with MCAO; assay: 2-week MCAO stroke study, SHR (Example 4); type: in vivo
# Method: (§2) Wistar and SHR rats were randomly divided into four treatment groups and one sham group (see Table 7 and 8).
# (§3) The morphological changes were evaluated after cerebral ischemia. The brains were dipped in M-1 Embedding Matrix for frozen sectioning, frozen in liquid nitrogen and stored at −80 deg C. The cerebral sections were then cut from the middle part of the frozen brain at 20 um. 4 to 6 sections were obtained from each brain for HE staining. HE staining of sections was performed to differentiate capillaries, after which they were covered with crystal mount. Cerebral sections were examined under the microscope and photographed.
# Wistar Rats with MCAO = assay: 2-week MCAO stroke study, Wistar (Example 4); type: in vivo
# Method: as §2, §3
# [7] = system: oxidized DNA base products; assay: Evaluation of DNA damage in blood DNA by GC/MS (Example 5); type: in vivo, Wistar rats and SHR; conditions: Stroke + treatment, doses of Table 9; mean ± S.D.; unit not given in Table 11 (Table 10: nmol/mg DNA)
# Method: 60 Wistar rats and 60 SHR were divided into six treatment groups separately (excluding the vehicle group). The single blinded experiment was conducted with Formulation B and other drugs being administrated once daily orally (see Table 9). After a week treatment, Wistar rats underwent a MCAO procedure to induce stroke. Treatment was continued for another week after surgery before the rats were sacrificed by decapitation. DNA extraction and DNA base damage analysis was then performed. DNA was extracted from blood samples collected from different treatment groups of Wistar rats and SHR using the phenol-chloroform method. The DNA samples were then analyzed by GC/MS.
# AT2 receptor = assay: RT-PCR gene expression in left cortex after MCAO: AT2 (Example 6); type: in vivo, Wistar rats; conditions: stroke operated groups, doses of Table 12; compared with stroke operated vehicle group (p<0.05)
# From the text: (§4) The brains were collected for further gene expression studies. The cerebral left cortexes containing infarct area were separated.
# Bax = assay: RT-PCR gene expression in left cortex after MCAO: Bax (Example 6); type: in vivo, Wistar rats; conditions: stroke-operated group, doses of Table 12; compared with stroke operated vehicle group (p<0.05)
# From the text: as §4
# Fas = assay: RT-PCR gene expression in left cortex after MCAO: Fas (Example 6); type: in vivo, Wistar rats; conditions: stroke-operated group, doses of Table 12; compared with stroke operated vehicle group
# From the text: as §4
# BcL-xL [8] = assay: RT-PCR gene expression in left cortex after MCAO: BcL-xL (Example 6); type: in vivo, Wistar rats; conditions: stroke operated, doses of Table 12
# From the text: as §4
# BcL-xS [9] = assay: RT-PCR gene expression in left cortex after MCAO: BcL-xS (Example 6); type: in vivo, Wistar rats; conditions: stroke operated, doses of Table 12; compared with stroke operated vehicle group (p<0.05)
# From the text: as §4
# BcL-xL [10] = assay: Gene expression Bcl-xL, Wistar (Example 7); type: in vivo, Wistar rats; conditions: Losartan 1 mg/kg/day, compared with vehicle group (p<0.01)
# Method: as §1
# (§5) Glyceraldehydes-3-[…] dehydrogenase (GAPDH) was used as the internal standard gene. Primers sequences of GAPDH, VEGF, eNOS, ACE, AT1, AT2, Fas, Bax, Bcl-xL and Bcl-xS were used in this study.
# Bcl-xS [11] = assay: Gene expression Bcl-xS, SHR (Example 7); type: in vivo; conditions: doses of Table 14, vs Vehicle group
# Method: as §1, §5
# [12] = Inhibition of Pyrogallol Red Bleaching by Hypochlorous Acid; type: biochemical; conditions: 10 mg/ml; 125 uM HOCL; pH 7.4, 37 deg. C.; 542 nm
# Method: Pyrogallol Red was dissolved in 100 mM buffer at 37 deg. C., pH 7.4, after which 125 uM HOCL was added and incubated with 10 mg/ml ascorbic acid and other select herbal extracts including two batches of Formulation B. The absorbance values of the mixtures in the presence and absence of the antioxidant were recorded by UV visible spectrophotometer at 542 nm.
# Inhibition of ABTS Assay = type: biochemical; conditions: 10 ul of 10 mg/ml in 990 ul ABTS reagent; 2 minutes; 734 nm
# Method: 10 ul of 10 mg/ml of select herbal extracts and two batches of Formulation B were mixed with 990 ul of ABTS reagent and incubated for 2 minutes before the absorbance was measured by UV visible spectrophotometer at 734 nm.
# [13] = MCAO, Formulation B 500 mg/kg/day, Losartan 1 mg/kg/day
# [14] = MCAO, Formulation B 500 mg/kg/day, Losartan 1 mg/kg/day, day 13
Compound,amount of DNA damage compared to Remembrance 500 mg group [5],2OH Adenine [7],"5(OH, Me) Uracil [7]",5CI Uracil [7],5Formyl Uracil [7],5OH Cytosine [7],5OH Uracil [7],"5OH, Me Hydantoin [7]",8OH Adenine [7],8OH Guanine [7],FAPy Adenine [7],FAPy Guanine [7],Hypoxanthine [7],Thymine Glycol (cis) [7],Xanthine [7],AT2 expression (AT2 receptor),Bax gene expression (Bax),Fas expression (Fas),BcL-xL up or down regulation (BcL-xL [8]),BcL-xS expression (BcL-xS [9]),further results
CC(=O)Oc1ccccc1C(=O)O [Aspirin],higher amount of DNA damage,,,,,,,,,,,,,,,,,,,,"Neurological score, 1 day after stroke [1]: 1 ± 1.73; Neurological score, 1 day before decapitation [1]: 2 ± 2.74; Neurological score, 15 days after stroke [1]: 2 ± 2.45; Neurological score, 1 day after stroke [2]: 1.72 ± 1.73; Neurological score, 1 day before decapitation [2]: 1.54 ± 2.15; Neurological score, 15 days after stroke [2]: 0.63 ± 1.84; apoptosis (TUNEL staining) in cerebral cortex [3]: reduction in apoptosis; apoptosis (TUNEL staining) in cerebral cortex [4]: reduction in apoptosis"
CCCCc1nc(Cl)c(CO)n1Cc1ccc(-c2ccccc2-c2nn[nH]n2)cc1 [Losartan],higher amount of DNA damage,0.02 ± 0.03,0.04 ± 0.03,0.02 ± 0.01,0.01 ± 0.01,0.01 ± 0.01,0.01 ± 0.01,0.10 ± 0.02,0.05 ± 0.04,0.13 ± 0.04,0.09 ± 0.03,0.03 ± 0.03,22.21 ± 8.01,2.20 ± 0.15,1.51 ± 0.32,significantly reduced,significant effect in down regulating,no significant effect,did not have any significant effects,significantly reduced expression,"infarct volume [6, 13]: 5.22%; mortality rate [6, 14]: 28.6%; number of capillaries, HE staining ([6]; after MCAO): 15 capillaries; infarct volume (Wistar Rats with MCAO; [13]): 2.41%; mortality rate (Wistar Rats with MCAO; [14]): 0%; number of capillaries, HE staining (Wistar Rats with MCAO; after MCAO): 22 capillaries; Bcl-xL expression (BcL-xL [10]): significant fold decrease; Bcl-xS expression (Bcl-xS [11]): up-regulating effects"
CCOC(=O)[C@H](CCc1ccccc1)N[C@@H](C)C(=O)N1[C@H](C(=O)O)C[C@@H]2CCC[C@@H]21 [Ramipril],,0.03 ± 0.02,0.03 ± 0.00,0.01 ± 0.00,0.50 ± 0.03,0.05 ± 0.01,0.06 ± 0.00,0.04 ± 0.02,0.03 ± 0.01,0.13 ± 0.07,0.08 ± 0.03,0.03 ± 0.01,18.12 ± 11.18,0.68 ± 0.31,2.61 ± 1.64,significantly reduced,significant effect in down regulating,no significant effect,did not have any significant effects,significantly reduced expression,
O=C1O[C@H]([C@@H](O)CO)C(O)=C1O [ascorbic acid],,,,,,,,,,,,,,,,,,,,,pyrogallol red bleaching inhibition [12]: ~100%; scavenging effect of ABTS (Inhibition of ABTS Assay): 100%
